The text below walks through data of patent EP4458804A1, “METHOD FOR PRODUCING AN OBJECT, PHENALEN-1-ONE COMPOUND AND USE THEREOF” (TriOptoTec GmbH, priority 2023, dated 2024).

Data set [1] can be described thus: Incorporation of photocatalysts into TPU films versus process time, absorption spectroscopy against blank film (Beispiele 7a-9b). It is filed as physicochemical. As to conditions: Rezeptur 1. The procedure:
Im nächsten Schritt wurde die Verwendbarkeit der verschiedene Photokatalysatorklassen, ausgewählt aus Phenalen-1-on-Derivaten, Curcumin-Derivaten und Porphycen-Derivaten, mit unterschiedlichen Eigenschaften - von neutral unpolar bis ionisch polar - auf Ihre Verwendbarkeit und Wirkung im Verfahren untersucht.
Zur Beurteilung der optimalen Prozesszeit bei Einsatz der Photokatalysatoren, wurden TPU Folienstücke nach Beschreibung in Beispiel 4 zu je 1, 2, 5 und 10 min in den Imprägnierlösungen behandelt, gegebenenfalls auch 30 und 60 min bei undeutlichen Ergebnissen.
Als Basisformulierung wurde Rezeptur 1 nach Beispiel 2 verwendet.
Nach der angegebenen Prozesszeit wurden die Folie entnommen, mit Wasser gewaschen und für 1h bei 40°C getrocknet/abgelüftet.
Die Folien wurden durch Absorptionsspektroskopie gegen ein Blank-Folienstück direkt vermessen, beim Maximum der Absorption des Photokatalysators. Dabei ergaben sich in Abhängigkeit der Prozesszeit folgende Werte, die in den Tabellen 40 bis

A short description of data set [2]: Leaching test A: screening immersion 24 h, UV-VIS of supernatant (Beispiel 10 A). The class given is physicochemical. Also noted: Abs. nach Auswaschen: unit not given here. As to conditions: medium Wasser; for Berechneter Verlust in %: Rezeptur 1 nach Beispiel 1; for Abs. nach Auswaschen: Rezeptur 1 nach Beispiel 1, supernatant. The protocol:
Um das Auswaschen der verschiedenen Farbstoffe in den Kunststofffolien zu beurteilen, wurde ein Immersionstest in deionisiertem Wasser mit einem pH-Wert von (6 ± 1) (oder gegebenenfalls anderen Lösungsmitteln) und einer Wassertemperatur von (22 ± 3) °C für 24 Stunden durchgeführt.
Dazu wurde ein Folienstück definierter Größe (3 cm x 3 cm) imprägniert (nach Rezeptur 1, Beispiel 1) und anschließend für 24 Stunden in eine definierte Menge deionisiertem Wasser (12,0 mL) gegeben und durch eine Schüttelplatte in Bewegung gehalten. Nach der angegeben Immersionszeit wurde die Folie entnommen und der Überschuss im UV-VIS Spektrometer vermessen, um die ausgewaschene Menge an Farbstoff zu bestimmen. Die Menge wird durch die definierte Größe der Folie und definierte Flüssigkeitsmenge auf einen Quadratzentimeter zurückgerechnet.
Dieser Immersionstest diente dazu, das Auswaschverhalten verschiedener Farbstoffe aus verschiedenen Kunststofffolien zu beurteilen. Weiter sollte er dabei helfen, verschiedene Farbstoffklassen oder verschiedene Farbstoffderivate einer Farbstoffklasse bezüglich dieser Charakteristik miteinander zu vergleichen.
Die zugeschnittenen Folien werden in einem geeigneten Behälter vollständig mit dem Prüfmedium (typischerweise deionisiertes Wasser) bedeckt. Anschließend wird der Behälter zugedeckt und auf die Schüttelplatte aufgebracht. Bei geringer Geschwindigkeit der Platte wird für 24 Stunden gewartet. Nach der Immersion wurden 3 mL des Überstandes durch Absorptionsspektroskopie vermessen.
Die Auswertung erfolgte über das Verhältnis der max. Absorptionswerte einer reinen Farbstofflösung definierter Konzentration und des vermessenen Überstandes. Die Ergebnisse sind in Tabelle 50 dargestellt. Tabelle 50: Auswaschverhalten verschiedener Photokatalysatoren nach Immersionstest A

Data set [3] concerns S.aureus ATCC 6538. The data set is described as follows: Antibacterial activity of impregnated films, modified ISO 22196 with illumination (Beispiele 11-16, 25). The class given is cell-based. To be noted: Beispiel 14; TPU film; Rezeptur 1 (nach Beispiel 1); 1 mM photocatalyst in impregnation solution; light 20mW/cm2 10min.
The nature of data set [4]: Comparative examples 23-25: impregnation of unsuitable plastics or with a fluorescent dye, visual evaluation. It is filed as physicochemical. As to conditions: TPU Folien. The protocol: Die Farbstoffkonzentration in der Imprägnierlösung betrug jeweils 1 mM bei Phenalen-1-on- und Curcuminderivaten, 0,1 mM bei Prophycenderivaten.
Es wurden 0,2 mm starke Polycarbonatfolien eingesetzt und mit Imprägnierlösungen enthaltend die Photokatalysatoren F-24b, F-64a oder F-73 behandelt.
Es wurden TPU Folien eingesetzt und mit einer Imprägnierlösung enthaltend den Farbstoff 2-Chloro-6-(3-hydroxypropylamino)-1-phenalenon (CAS 113722-81-9) behandelt.

Data set [5] relates to S.aureus ATCC 6538. Nature of the data set: Antibacterial activity of impregnated films, modified ISO 22196 with illumination (Beispiele 11-16, 25). The class given is cell-based. An excerpt:
Die Bestimmung der antimikrobiellen Aktivität erfolgte nach einer modifizierten Version der ISO 22196:2011-08 ("Messung von antibakterieller Aktivität auf Kunststoff- und anderen porenfreien Oberflächen", Ausgabedatum: 2011-08).
Bei der Testdurchführung wurde ein dünner Flüssigkeitsfilm, in dem die Bakterien enthalten sind (1,25 x 10^4 /cm^2), direkt auf die Probenkörper (3 x 3 cm) aufgebracht. Direkt nach Beimpfung wurden von der Nullprobe die Bakterien von den Probenkörperoberflächen mittels Ultraschall und Vortexen abgelöst und die Keimzahl (KBE (engl. CFU), Kolonie-bildende Einheit) bestimmt (t0-Wert).
Nach 4h wurden überlebende Bakterien von den Probenkörperoberflächen mittels Ultraschall und Vortexen abgelöst und die Keimzahl bestimmt (t4-Wert).
Im Unterschied zu der in der ISO 22196:2011-08 beschreibenen Methode wurde das Inokulum nicht mit einer Folie abgedeckt und die Inkubationszeit wurde von 24 auf 4 Stunden reduziert. Weiterhin wurden die Probenkörper der Proben 3 und 4 mit Licht der Intensität 20mW/cm2 für 10min belichtet, um eine biozide Wirkung nach Bestrahlung mit elektromagnetischer Strahlung zu bestimmen.
Verwendet wurden TPU Folienstücke, die nach dem in Beispiel 4 beschriebenen Verfahren mit Rezeptur 1 behandelt wurden. Rezeptur 1 wurde hergestellt nach Beispiel 2. […] Der Test wurde in Anlehnung an ISO 22196 nach oben beschriebener Methode durchgeführt.
TPU-Folienstücke wurden ebenfalls nach dem in Beispiel 4 beschriebenen Verfahren mit verschiedenen Rezepturen behandelt, die gemäß Beispiel 2 hergestellt wurden. Die Farbstoffkonzentration in der Imprägnierlösung betrug jeweils 1 mM F-24b. Der Test wurde in Anlehnung an ISO 22196 nach oben beschriebener Methode durchgeführt.
Die Farbstoffkonzentration in der Imprägnierlösung betrug jeweils 1 mM.
Die Photokatalysator-Konzentration von F-24b wurde variiert.
Es wurde ein Bakterientest in Anlehnung an ISO 22196 nach oben beschriebener Methode durchgeführt.

The mark [6] stands for this setting: Beispiel 7a neutral Phenalen-1-one, TPU film, process time 1 min, absorption at photocatalyst maximum vs blank film.
The mark [7] stands for this setting: Beispiel 7a neutral Phenalen-1-one, TPU film, process time 2 min.
[8] abbreviates: Beispiel 7a neutral Phenalen-1-one, TPU film, process time 5 min.
The mark [9] stands for this setting: Beispiel 7a neutral Phenalen-1-one, TPU film, process time 10 min.
Where [10] appears, read: TPU Folie, Beispiel 8a, Tabelle 44.
Setting [11] is: TPU Folie, Beispiel 7d, Tabelle 43.
Where [12] appears, read: Beispiel 9a neutral Porphycenderivate mit Hydroxyfunktion, TPU film, process time 10 min.

On to `NCCOc1ccc2c3c(cccc13)C=CC2=O` [F-09], for which the “Abs. 1 min” value in data set [1] (setting [6]) was 0,227. Further, in data set [1] (setting [7]), the “Abs. 2 min” value was 0,158. Further, the “Abs. 5 min” value in data set [1] (setting [8]) is on record as 0,123. In data set [1] (setting [9]), the “Abs. 10 min” value is given as 0,263.

For `NCCOc1ccc(/C=C/C(=O)C(C(=O)/C=C/c2ccc(OCCN)cc2)c2ccccc2)cc1` [F-64c], in data set [1] (setting [10]), the “Abs. 5 min” value is reported as 0,61 and the “Abs. 10 min” value is on record as over 1.

As for `NCCCOc1ccc2cccc3c2c1C(=O)C=C3` [F-10], the “Abs. 1 min” value in data set [1] (setting [6]) was 0,044. In addition, in data set [1] (setting [7]), the “Abs. 2 min” value is reported as 0,011. The “Abs. 5 min” value in data set [1] (setting [8]) is given as 0,062. Besides, in data set [1] (setting [9]), the “Abs. 10 min” value was 0,087.

For the molecule `CCOC1=CC(=O)c2cccc3cccc1c23` [F-02], in data set [1] (setting [11]), the “Abs. 1 min” value is 0,125, the “Abs. 2 min” value is on record as 0,229, the “Abs. 5 min” value was 0,475 and the “Abs. 10 min” value is recorded as 0,590. In data set [2] (plastic Surlyn), the “Berechneter Verlust in %” value is 2,7% and the “Abs. nach Auswaschen” value is recorded as 0,009.

Consider `COC(=O)C(C)Oc1ccc(OCC2=Cc3cccc4cccc(c34)C2=O)cc1` (stereo not drawn) [F-19a], for which the “Abs. 1 min” value in data set [1] (setting [6]) is over 1. Also, the “Abs. 2 min” value in data set [1] (setting [7]) is given as over 1. In data set [1] (setting [8]), the “Abs. 5 min” value is on record as over 1. Besides, the “Abs. 10 min” value in data set [1] (setting [9]) is listed as over 1.

In the case of `O=C1C(COc2ccc(O)cc2)=Cc2cccc3cccc1c23` [F-12], in data set [1] (setting [6]), the “Abs. 1 min” value is recorded as 0,108. Further, in data set [1] (setting [7]), the “Abs. 2 min” value was 0,349. For the same molecule, in data set [1] (setting [8]), the “Abs. 5 min” value is on record as 0,411. Further, in data set [1] (setting [9]), the “Abs. 10 min” value was over 1.

In the case of `COCCC1=Cc2nc1ccc1[nH]c(cc1CCOC)c1nc(c(OCCC(NC(=O)OC(C)(C)C)C(=O)O)cc3[nH]c2cc3CCOC)C(CCOC)=C1` (stereo not drawn) [F-78b], the “Abs. 10 min” value in data set [1] (setting [12]) is recorded as 0,670.

On to `COc1cc(/C=C/C(=O)CC(=O)/C=C/c2cc(Br)c(OCCN)c(OC)c2)cc(Br)c1OCCN` [F-65], for which, in the data set on S.aureus ATCC 6538 [3], the “Log10 Reduktion Hauptprobe” value is recorded as 1,3 ± 0,1 log10. Besides, in data set [1] (setting [10]), the “Abs. 1 min” value is reported as 0,08 and the “Abs. 10 min” value was 0,87.

On to `O=C1C(S(=O)(=O)O)=Cc2cccc3cccc1c23` [F-01a], for which, in the data set with S.aureus ATCC 6538 [3], the “Log10 Reduktion Hauptprobe” value is reported as 1,4 ± 0,4 log10.

On to `O=C1C=Cc2cc(S(=O)(=O)O)cc3cccc1c23` [F-01b], for which, in data set [1] (setting [11]), the “Abs. 10 min” value was 0,008, the “Abs. 30 min” value is recorded as 0,011 and the “Abs. 60 min” value is recorded as 0,065.

With `O=C1C(Cl)=Cc2ccc(NCCCO)c3cccc1c23` [2-Chloro-6-(3-hydroxypropylamino)-1-phenalenon, reference compound], the “Färbung der Folie” value in data set [4] (30 min Einwirkzeit) is “homogen pink gefärbte Folien”. Moreover, in data set [4] (Abreiben mit feuchtem Tuch, Waschen mit Wasser), the “Entfernbarkeit der Färbung” value is on record as “weder durch Abreiben mit einem feuchten Tuch noch durch Waschen mit Wasser entfernt”. Besides, in the data set with S.aureus ATCC 6538 [5] (TPU Folien dyed with the fluorescent dye (Beispiel 25)), the “photodynamische Inaktivierung von S.aureus gegenüber den Kontrollen” value is “keine photodynamische Inaktivierung”.

Turning to “9-Acetoxy-2,7,12,17-tetra-(beta-methoxyethyl)porphycen [F-66]”, the “Abs. 1 min” value in data set [1] (Beispiel 9a, TPU film, process time 1 min, used as 0,1 mM Lösung) was 0,008. For the same molecule, the “Abs. 2 min” value in data set [1] (Beispiel 9a, TPU film, process time 2 min, used as 0,1 mM Lösung) is 0,020. Besides, the “Abs. 5 min” value in data set [1] (Beispiel 9a, TPU film, process time 5 min, used as 0,1 mM Lösung) is listed as 0,044. The “Abs. 10 min” value in data set [1] (Beispiel 9a, TPU film, process time 10 min, used as 0,1 mM Lösung) is listed as 0,058. In data set [2] (plastic TPU), the “Berechneter Verlust in %” value was 2,0% and the “Abs. nach Auswaschen” value is on record as 0,021.

Regarding `NCCCOC1=CC(=O)c2cccc3cccc1c23` [F-08], the “Abs. 1 min” value in data set [1] (setting [6]) is 0,003. The “Abs. 2 min” value in data set [1] (setting [7]) is given as 0,015. Moreover, the “Abs. 5 min” value in data set [1] (setting [8]) is 0,016. Further, the “Abs. 10 min” value in data set [1] (setting [9]) is 0,023. Besides, in the data set with S.aureus ATCC 6538 [5] (Beispiel 14, TPU film, Rezeptur 1 (nach Beispiel 1), 1 mM photocatalyst in impregnation solution, light 20mW/cm2 10min), the “Log10 Reduktion Hauptprobe” value is 4,0 ± 0,3 log10.

As to `COCCC1=Cc2nc1ccc1[nH]c(cc1CCOC)c1nc(c(OC)cc3[nH]c2cc3CCOC)C(CCOC)=C1` [F-68], the “Abs. 10 min” value in data set [1] (setting [12]) was 1,01. The “Abs. 30 min” value in data set [1] (Beispiel 9a neutral Porphycenderivate mit Hydroxyfunktion, TPU film, process time 30 min) is on record as over 1. Moreover, the “Abs. 60 min” value in data set [1] (Beispiel 9a neutral Porphycenderivate mit Hydroxyfunktion, TPU film, process time 60 min) is over 1.

Turning to `CC(Oc1ccc(OCC2=Cc3cccc4cccc(c34)C2=O)cc1)C(=O)O` (stereo not drawn) [F-20a], in data set [1] (setting [6]), the “Abs. 1 min” value was 0,020. The “Abs. 2 min” value in data set [1] (setting [7]) is listed as 0,014. For the same molecule, the “Abs. 5 min” value in data set [1] (setting [8]) is 0,020. Besides, the “Abs. 10 min” value in data set [1] (setting [9]) is recorded as 0,035.

`COCCC1=Cc2nc1ccc1[nH]c(cc1CCOC)c1nc(c(OCCCN)cc3[nH]c2cc3CCOC)C(CCOC)=C1` [F-71]: in data set [1] (Beispiel 9a neutral Porphycenderivate mit Hydroxyfunktion, TPU film, process time 1 min), the “Abs. 1 min” value came out at 0. In data set [1] (Beispiel 9a neutral Porphycenderivate mit Hydroxyfunktion, TPU film, process time 2 min), the “Abs. 2 min” value turned out to be 0. Moreover, in data set [1] (Beispiel 9a neutral Porphycenderivate mit Hydroxyfunktion, TPU film, process time 5 min), the “Abs. 5 min” value is 0,032. Further, the “Abs. 10 min” value is 0,04 in data set [1] (setting [12]) and 0,023 in data set [1] (Beispiel 9b cationic Porphycenderivate, TPU film, process time 10 min). The “Abs. 30 min” value in data set [1] (Beispiel 9b cationic Porphycenderivate, TPU film, process time 30 min) is recorded as 0,062. Also, the “Abs. 60 min” value in data set [1] (Beispiel 9b cationic Porphycenderivate, TPU film, process time 60 min) is on record as 0,114.
